According to ChEMBL document CHEMBL1909046, “DrugMatrix in vitro pharmacology data”:
*1 amine or outer side, *2 acyl side, *3 side chain or, on linkers, in order; H or OH if unused. Where a SMILES comes first, the peptide text is derived from it. Bridges are numbered along the chain shown (N, C = ends). Roman numbers before positions name the chains, in order. [ ]: non-standard residue; d: D form. Actinocin(1to9) = Cc1c2oc3c(C)ccc(C(=O)[*:2])c3nc-2c(C(=O)[*:1])c(N)c1=O; NMeV = CN[C@H](C(=O)O)C(C)C; Sar = CNCC(=O)O

Columns and labels:
[1] = target: Insulin receptor (Rattus norvegicus, UniProt P15127); type: cell membranes, Wistar, Liver, Membrane; further: in other assays of this panel Not Active means under 50% inhibition at 10 µM
Chain of Insulin receptor (P15127 27-759 limits assumed): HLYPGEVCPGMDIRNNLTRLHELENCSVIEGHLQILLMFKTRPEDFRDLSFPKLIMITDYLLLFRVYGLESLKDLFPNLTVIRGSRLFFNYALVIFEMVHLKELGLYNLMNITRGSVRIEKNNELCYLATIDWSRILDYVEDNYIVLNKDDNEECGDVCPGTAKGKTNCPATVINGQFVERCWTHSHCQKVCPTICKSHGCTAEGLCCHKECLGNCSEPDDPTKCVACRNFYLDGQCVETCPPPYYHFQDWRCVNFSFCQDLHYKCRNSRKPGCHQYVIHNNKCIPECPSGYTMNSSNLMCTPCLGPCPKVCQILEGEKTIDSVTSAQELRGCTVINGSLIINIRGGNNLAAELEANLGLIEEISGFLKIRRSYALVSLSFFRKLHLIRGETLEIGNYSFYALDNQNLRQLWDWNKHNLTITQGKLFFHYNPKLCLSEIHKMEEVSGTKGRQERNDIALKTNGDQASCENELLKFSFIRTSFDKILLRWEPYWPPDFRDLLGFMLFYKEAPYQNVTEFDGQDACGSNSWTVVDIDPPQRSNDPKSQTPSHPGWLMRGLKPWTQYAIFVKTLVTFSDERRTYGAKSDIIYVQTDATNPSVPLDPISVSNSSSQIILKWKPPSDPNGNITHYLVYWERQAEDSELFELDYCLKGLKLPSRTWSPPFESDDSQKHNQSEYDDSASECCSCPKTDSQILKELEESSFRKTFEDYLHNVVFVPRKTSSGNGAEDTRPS
Chain of Insulin receptor (P15127 764-1383 limits assumed): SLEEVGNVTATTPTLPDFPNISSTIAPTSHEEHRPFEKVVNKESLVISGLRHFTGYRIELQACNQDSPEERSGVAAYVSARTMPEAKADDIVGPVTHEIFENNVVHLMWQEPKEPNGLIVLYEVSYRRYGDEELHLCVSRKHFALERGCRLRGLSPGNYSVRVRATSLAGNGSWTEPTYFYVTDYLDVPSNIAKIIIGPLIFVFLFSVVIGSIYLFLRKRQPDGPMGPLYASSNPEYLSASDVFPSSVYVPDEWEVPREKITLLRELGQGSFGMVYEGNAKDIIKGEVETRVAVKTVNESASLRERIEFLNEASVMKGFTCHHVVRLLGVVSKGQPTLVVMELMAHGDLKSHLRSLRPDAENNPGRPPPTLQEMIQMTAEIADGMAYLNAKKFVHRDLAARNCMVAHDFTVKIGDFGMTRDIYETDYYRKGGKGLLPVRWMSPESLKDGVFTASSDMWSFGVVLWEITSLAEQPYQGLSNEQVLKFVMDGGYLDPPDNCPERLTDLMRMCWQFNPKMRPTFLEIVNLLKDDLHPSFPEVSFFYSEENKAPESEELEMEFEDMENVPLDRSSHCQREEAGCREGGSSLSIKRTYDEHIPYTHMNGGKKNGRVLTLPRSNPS

[2] = target: 5-hydroxytryptamine receptor 1B (Rattus norvegicus, UniProt P28564); type: cell membranes, Wistar, Cerebral cortex, Membrane; further: in other assays of this panel Not Active means under 50% inhibition at 10 µM
Chain of 5-hydroxytryptamine receptor 1B (P28564 whole entry): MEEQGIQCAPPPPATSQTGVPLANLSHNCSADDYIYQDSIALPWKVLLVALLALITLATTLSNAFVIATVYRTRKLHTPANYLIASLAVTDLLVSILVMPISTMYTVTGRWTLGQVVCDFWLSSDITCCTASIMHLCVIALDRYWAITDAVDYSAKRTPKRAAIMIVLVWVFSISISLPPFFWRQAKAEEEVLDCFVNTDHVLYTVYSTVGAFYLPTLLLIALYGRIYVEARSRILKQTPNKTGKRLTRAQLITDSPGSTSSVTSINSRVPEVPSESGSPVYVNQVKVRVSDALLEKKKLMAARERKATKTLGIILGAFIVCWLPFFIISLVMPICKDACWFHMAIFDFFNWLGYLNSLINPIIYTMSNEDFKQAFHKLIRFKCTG

[3] = target: T1, 5-hydroxytryptamine receptor 1A (Rattus norvegicus, UniProt P19327); type: cell membranes, CHO-K1, Membrane; conditions: cho-k1; further: in other assays of this panel Not Active means under 50% inhibition at 10 µM
T1 sequence (P19327 whole entry): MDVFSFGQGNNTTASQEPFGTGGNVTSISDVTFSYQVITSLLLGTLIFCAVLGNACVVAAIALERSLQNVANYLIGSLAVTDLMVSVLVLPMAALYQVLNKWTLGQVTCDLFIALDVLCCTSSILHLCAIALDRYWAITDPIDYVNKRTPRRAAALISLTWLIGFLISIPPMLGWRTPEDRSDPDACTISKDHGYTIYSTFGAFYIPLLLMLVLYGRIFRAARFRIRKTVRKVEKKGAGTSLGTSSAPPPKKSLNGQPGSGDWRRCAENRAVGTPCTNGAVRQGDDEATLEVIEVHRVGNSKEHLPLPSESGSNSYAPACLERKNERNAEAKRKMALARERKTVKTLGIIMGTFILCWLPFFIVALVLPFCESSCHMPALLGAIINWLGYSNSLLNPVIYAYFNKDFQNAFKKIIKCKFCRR

[4] = target: T2, Angiotensin-converting enzyme (Oryctolagus cuniculus, UniProt P12822); type: tissue-based, Lung;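 further: enzymatic inhibition of angiotensin-converting enzyme measured with FAPGG as the substrate; in other assays of this panel Not Active means under 50% inhibition at 10 µM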
T2 sequence (P12822 whole entry): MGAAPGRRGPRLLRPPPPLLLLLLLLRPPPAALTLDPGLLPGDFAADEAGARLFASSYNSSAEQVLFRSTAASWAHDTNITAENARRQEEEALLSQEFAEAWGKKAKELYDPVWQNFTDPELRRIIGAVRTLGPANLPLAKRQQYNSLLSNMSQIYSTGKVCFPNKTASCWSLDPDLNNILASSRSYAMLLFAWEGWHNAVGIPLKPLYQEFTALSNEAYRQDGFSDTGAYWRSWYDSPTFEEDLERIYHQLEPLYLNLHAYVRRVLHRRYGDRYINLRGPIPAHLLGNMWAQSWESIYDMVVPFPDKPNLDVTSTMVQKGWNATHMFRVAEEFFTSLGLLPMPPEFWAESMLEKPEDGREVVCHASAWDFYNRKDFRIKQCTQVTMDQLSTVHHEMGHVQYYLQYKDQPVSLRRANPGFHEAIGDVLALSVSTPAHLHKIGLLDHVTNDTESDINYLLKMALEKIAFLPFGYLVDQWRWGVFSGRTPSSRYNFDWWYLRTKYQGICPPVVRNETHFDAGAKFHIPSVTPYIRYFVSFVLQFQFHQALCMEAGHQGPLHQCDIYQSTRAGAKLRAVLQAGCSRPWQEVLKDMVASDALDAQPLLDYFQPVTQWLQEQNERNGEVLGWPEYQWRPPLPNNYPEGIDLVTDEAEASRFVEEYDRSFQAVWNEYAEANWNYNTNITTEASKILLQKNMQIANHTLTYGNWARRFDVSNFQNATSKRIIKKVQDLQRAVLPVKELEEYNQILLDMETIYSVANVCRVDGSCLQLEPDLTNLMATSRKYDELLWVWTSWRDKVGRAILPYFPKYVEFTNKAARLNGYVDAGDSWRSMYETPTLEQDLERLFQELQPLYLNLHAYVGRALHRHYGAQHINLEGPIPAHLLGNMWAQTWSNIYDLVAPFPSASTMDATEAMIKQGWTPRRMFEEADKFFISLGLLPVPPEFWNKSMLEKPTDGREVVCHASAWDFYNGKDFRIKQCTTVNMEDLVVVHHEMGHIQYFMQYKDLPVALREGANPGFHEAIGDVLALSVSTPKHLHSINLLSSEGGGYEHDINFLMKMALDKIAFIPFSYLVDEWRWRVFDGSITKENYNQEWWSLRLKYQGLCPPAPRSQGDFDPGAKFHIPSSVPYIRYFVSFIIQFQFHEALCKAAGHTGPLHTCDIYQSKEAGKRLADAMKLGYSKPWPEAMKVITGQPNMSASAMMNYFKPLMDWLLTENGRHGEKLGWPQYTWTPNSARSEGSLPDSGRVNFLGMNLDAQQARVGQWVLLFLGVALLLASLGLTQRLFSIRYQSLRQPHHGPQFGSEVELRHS

[5] = target: T3, Cytochrome P450 2A6 (Homo sapiens, UniProt P11509); conditions: bti-tn-5b1-4; further: in other assays of this panel Not Active means under 50% inhibition at 10 µM
T3 sequence (P11509 whole entry): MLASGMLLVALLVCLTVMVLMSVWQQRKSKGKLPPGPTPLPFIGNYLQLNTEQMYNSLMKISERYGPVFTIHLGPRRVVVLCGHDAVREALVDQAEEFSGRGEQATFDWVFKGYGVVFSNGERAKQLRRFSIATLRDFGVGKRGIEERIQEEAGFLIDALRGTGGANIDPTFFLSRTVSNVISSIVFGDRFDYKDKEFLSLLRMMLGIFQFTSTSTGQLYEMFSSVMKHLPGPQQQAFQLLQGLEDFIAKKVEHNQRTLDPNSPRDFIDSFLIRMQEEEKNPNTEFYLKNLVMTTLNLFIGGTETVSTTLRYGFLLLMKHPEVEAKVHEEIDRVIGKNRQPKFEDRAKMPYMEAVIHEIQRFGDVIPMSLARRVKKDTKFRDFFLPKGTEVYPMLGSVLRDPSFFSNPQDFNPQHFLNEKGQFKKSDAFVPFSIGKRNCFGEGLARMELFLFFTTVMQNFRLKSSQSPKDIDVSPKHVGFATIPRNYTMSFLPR

[6] = DRUGMATRIX: GABAA, Muscimol, Central radioligand binding (ligand: [3H] Muscimol); type: cell membranes, Rattus norvegicus, Wistar, Brain, Membrane; conditions: Not Active = under 50% inhibition at 10 µM
[7] = target: T4, Neuropeptide Y receptor type 1 (Homo sapiens, UniProt P25929); type: cell membranes, Membrane; conditions: sk-n-mc; further: in other assays of this panel Not Active means under 50% inhibition at 10 µM
T4 sequence (P25929 whole entry): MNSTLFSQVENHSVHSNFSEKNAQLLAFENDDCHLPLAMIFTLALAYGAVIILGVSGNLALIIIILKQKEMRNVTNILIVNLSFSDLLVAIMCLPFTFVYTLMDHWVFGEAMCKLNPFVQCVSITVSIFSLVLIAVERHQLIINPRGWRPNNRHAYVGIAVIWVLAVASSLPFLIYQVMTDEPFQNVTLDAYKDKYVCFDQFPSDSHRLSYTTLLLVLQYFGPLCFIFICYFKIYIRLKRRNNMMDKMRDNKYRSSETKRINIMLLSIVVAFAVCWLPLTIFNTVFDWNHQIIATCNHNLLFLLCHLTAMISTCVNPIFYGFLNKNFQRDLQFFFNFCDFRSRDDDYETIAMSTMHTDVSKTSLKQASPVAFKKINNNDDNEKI

[8] = target: Mitogen-activated protein kinase 3 (Homo sapiens, UniProt P27361); experiment: DRUGMATRIX: Protein Serine/Threonine Kinase, ERK1 enzyme inhibition (substrate: Myelin Basic Protein); set-up: species or system Escherichia coli; conditions: Not Active = under 50% inhibition at 10 µM
Chain of Mitogen-activated protein kinase 3 (P27361 whole entry): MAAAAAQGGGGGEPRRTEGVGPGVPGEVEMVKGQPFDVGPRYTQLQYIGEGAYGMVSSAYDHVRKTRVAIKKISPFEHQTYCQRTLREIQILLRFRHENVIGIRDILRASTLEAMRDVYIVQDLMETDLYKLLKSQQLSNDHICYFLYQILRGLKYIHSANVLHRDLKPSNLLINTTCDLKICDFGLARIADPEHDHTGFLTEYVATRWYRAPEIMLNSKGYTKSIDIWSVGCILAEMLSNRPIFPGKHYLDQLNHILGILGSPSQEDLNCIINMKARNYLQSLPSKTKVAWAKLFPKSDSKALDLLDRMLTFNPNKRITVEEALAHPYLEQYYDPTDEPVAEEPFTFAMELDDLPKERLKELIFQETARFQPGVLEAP

Cc1onc(-c2ccccc2Cl)c1C(=O)N[C@@H]1C(=O)N2[C@@H]1SC(C)(C)[C@@H]2C(=O)O [CLOXACILLIN]
Not Active: IC50 [1] | IC50 [2] | IC50 [3] | IC50 [4] | IC50 [5] | Ki [5] | IC50 [6] | Ki [6] | IC50 [7] | IC50 [8]

CC1CC(OC(=O)C(O)c2ccccc2)CC(C)(C)C1 (stereo not given) [CYCLANDELATE]
Not Active: IC50 [1] | IC50 [2] | IC50 [3] | IC50 [4] | IC50 [5] | Ki [5] | IC50 [6] | Ki [6] | IC50 [7] | IC50 [8]

Cc1c2oc3c(C)ccc(C(=O)N[C@@H]4C(=O)N[C@H](C(C)C)C(=O)N5CCC[C@H]5C(=O)N(C)CC(=O)N(C)[C@@H](C(C)C)C(=O)O[C@@H]4C)c3nc-2c(C(=O)N[C@@H]2C(=O)N[C@H](C(C)C)C(=O)N3CCC[C@H]3C(=O)N(C)CC(=O)N(C)[C@@H](C(C)C)C(=O)O[C@@H]2C)c(N)c1=O [DACTINOMYCIN] (I: T[dV]P[Sar][NMeV] / II: T[dV]P[Sar][NMeV]; ester I:1-I:C, II:1-II:C; linker I:N-II:N via Actinocin(1to9))
Not Active: IC50 [1] | IC50 [2] | IC50 [3] | IC50 [4] | IC50 [5] | Ki [5] | IC50 [6] | Ki [6] | IC50 [7] | IC50 [8]

Cc1c(O)c(=O)ccn1C [DEFERIPRONE]
Not Active: IC50 [1] | IC50 [2] | IC50 [3] | IC50 [4] | IC50 [5] | Ki [5] | IC50 [6] | Ki [6] | IC50 [7] | IC50 [8]

CNCCCN1c2ccccc2CCc2ccccc21 [DESIPRAMINE]
Not Active: IC50 [1] | IC50 [2] | IC50 [3] | IC50 [4] | IC50 [5] | Ki [5] | IC50 [6] | Ki [6] | IC50 [7] | IC50 [8]

O=c1oc2ccccc2c(O)c1Cc1c(O)c2ccccc2oc1=O [DICUMAROL]
Not Active: IC50 [1] | IC50 [2] | IC50 [3] | IC50 [4] | IC50 [5] | Ki [5] | IC50 [6] | Ki [6] | IC50 [7] | IC50 [8]

C[C@H]1O[C@@H](O[C@H]2[C@@H](O)C[C@H](O[C@H]3[C@@H](O)C[C@H](O[C@H]4CC[C@@]5(C)[C@H](CC[C@@H]6[C@@H]5C[C@@H](O)[C@]5(C)[C@@H](C7=CC(=O)OC7)CC[C@]65O)C4)O[C@@H]3C)O[C@@H]2C)C[C@H](O)[C@@H]1O [DIGOXIN]
Not Active: IC50 [1] | IC50 [2] | IC50 [3] | IC50 [4] | IC50 [5] | Ki [5] | IC50 [6] | Ki [6] | IC50 [7] | IC50 [8]
